For data set [1] the following is noted: at clinically effective concentrations; cited from earlier work.
Data set [2] in a line: Solubility in aqueous media. The class given is physicochemical.
Data set [3] in a line: Blood glucose levels after insulin. The format is in vivo, rats. The following applies: subcutaneous; 100 μg insulin/kg. How it is done: Porcine insulin (Sigma Chemical Co., St. Louis, Mo., Catalog No. 1 3505, specific activity: approximately 24 IU/mg) was encapsulated in 2,5-diketo- 3,6-di (4-fumarylamino)piperazine, prepared using the same method in Example 1, by dissolving the diketopiperazine in sodium bicarbonate to form a solution containing 12.5 mg diketopiperazine/ml solution. This solution was then mixed with an equal volume of citric acid solution containing porcine insulin at a concentration of 0.172 mg insulin/ml citric acid to form a white precipitate. The product was collected by centrifuge and washed once with 200 ml of deionized water, and then dried overnight in the lyophilizer. The product was assayed by HPLC and found to contain 1.6% insulin by weight.
In total, three male rats weighing about 200 g each were each administered a dose of 100 μg insulin/kg body weight. The dose was given subcutaneously and also as insulin encapsulated in diketopiperazine. Control animals received only the diketopiperazine and the vehicle, phosphate buffered saline. Blood glucose levels were measured on samples taken from the tail vein at various times after treatment and measured as mg of glucose/dl blood using one drop of tail blood squeezed onto a Glucofilm™ strip.

Data on 3 compounds can be found in US5503852A, “Method for making self-assembling diketopiperazine drug delivery system” (Pharmaceutical Discovery Corporation, priority 1994, dated 1996).

As to `NC(=O)OCC(COC(N)=O)c1ccccc1` [felbamate], in data set [1], the “solubility in aqueous media” value is recorded as “not soluble in aqueous media at clinically effective concentrations”.

Regarding `O=C(O)CCC(=O)NCCCCC1NC(=O)C(CCCCNC(=O)CCC(=O)O)NC1=O` (stereo not shown) [2,5-diketo-3,6-di(4-succinylaminobutyl)piperazine], the solubility entry in data set [2] (acidic aqueous solutions) was “quite insoluble in acidic aqueous solutions”; in data set [2] (weakly alkaline aqueous solution) it was “readily soluble in weakly alkaline aqueous solution”.

With “encapsulated insulin by subcutaneous injection: Porcine insulin (Sigma Chemical Co.), given subcutaneously”, the blood glucose level result in data set [3] is given as “A marked decrease in blood glucose level”.
